Patent US11566007B2, “Ras inhibitors” (Revolution Medicines, Inc., priority 2019, dated 2023)
Several values for one entry are separate records, joined by “and”; a condition that tells them apart may be missing. Equal entries are not always repeated.

Assays:
KRAS G13D = KRAS G13D (Homo sapiens (Human), UniProt P01116+P62937, G13D); test: Ras-Raf (BRAF RBD) disruption / FRET / MOA assay, KRAS G13D; type: biochemical; conditions: read-out: IC50* KRAS G13D FRET data
How it was run: (§1)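 TR-FRET read-out: a drop in ratio relative to DMSO wells marks disruption of the Ras:RAF complex, reported as IC50. Compounds (3-fold series, 10 points, top 30 μM final) incubated 3 h at 25° C before Eu-anti-His 10 nM and APC-anti-GST 50 nM, 1.5 h more.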

[1] = test system: NCI-H358 cells (K-Ras G12C); test: Potency assay: pERK in NCI-H358 cells; type: cell-based, human; conditions: Homo sapiens, NCI-H358; H358 KRAS G12C; read-out: pERK EC50
How it was run: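 Inhibition of cellular pERK after a 4 h treatment, detected by AlphaLISA or In-Cell Western. IC50 from a four-parameter concentration-response fit.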

KRAS G12V = KRAS G12V (Homo sapiens (Human), UniProt P01116+P62937, G12V); test: Ras-Raf (BRAF RBD) disruption / FRET / MOA assay, KRAS G12V; type: biochemical; conditions: read-out: IC50* KRAS G12V FRET data
How it was run: as §1

K-Ras G12C = K-Ras G12C (Homo sapiens (Human), UniProt P01116+P62937, G12C); test: Ras-Raf (BRAF RBD) disruption / FRET / MOA assay, KRAS G12C; type: biochemical; conditions: KRAS G12C; Ras-Raf disruption/FRET/MOA assay; read-out: IC50* KRAS G12C FRET data
How it was run: as §1

KRAS G12D = KRAS G12D (Homo sapiens (Human), UniProt P01116+P62937, G12D); test: Ras-Raf (BRAF RBD) disruption / FRET / MOA assay, KRAS G12D; type: biochemical; conditions: Ras-Raf disruption/FRET/MOA assay; class symbols; read-out: KRAS G12D FRET data IC50
How it was run: as §1

NRAS Q61R = NRAS Q61R (Homo sapiens (Human), UniProt P01111+P62937, Q61R); test: Ras-Raf (BRAF RBD) disruption / FRET / MOA assay, NRAS Q61R; type: biochemical; conditions: NRAS Q61R; Ras-Raf disruption/FRET/MOA assay; read-out: IC50* NRAS Q61R FRET data
How it was run: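 Compounds were tested as a 10-point 3-fold dilution series from 30 μM final for their ability to drive ternary complex formation between nucleotide-loaded Ras and cyclophilin A, displacing the BRAF RBD. After 3 h at 25° C., anti-His Eu-W1024 (10 nM) and anti-GST allophycocyanin (50 nM) were added for 1.5 h. A TR-FRET ratio decrease versus DMSO gave IC50.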

K-Ras G13C = K-Ras G13C (Homo sapiens (Human), UniProt P01116+P62937, G13C); test: Ras-Raf (BRAF RBD) disruption / FRET / MOA assay, KRAS G13C; type: biochemical; conditions: KRAS G13C; Ras-Raf disruption/FRET/MOA assay; read-out: IC50* KRAS G13C FRET data
How it was run: as §1

Sequence of NRAS Q61R (P01111 whole entry Q61R): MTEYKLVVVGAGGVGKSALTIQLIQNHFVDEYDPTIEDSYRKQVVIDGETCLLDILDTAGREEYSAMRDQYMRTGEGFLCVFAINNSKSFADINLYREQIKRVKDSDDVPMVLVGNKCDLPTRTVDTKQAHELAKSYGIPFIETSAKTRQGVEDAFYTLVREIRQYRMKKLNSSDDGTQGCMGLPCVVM
Sequence of NRAS Q61R (P62937 whole entry): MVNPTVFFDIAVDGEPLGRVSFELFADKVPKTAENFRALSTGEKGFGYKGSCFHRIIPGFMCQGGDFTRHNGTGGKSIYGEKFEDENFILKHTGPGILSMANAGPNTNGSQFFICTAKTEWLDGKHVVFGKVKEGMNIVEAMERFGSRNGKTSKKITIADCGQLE
Sequence of KRAS G13D (P01116-2 other isoform, or with tags, fused parts or gaps G13D): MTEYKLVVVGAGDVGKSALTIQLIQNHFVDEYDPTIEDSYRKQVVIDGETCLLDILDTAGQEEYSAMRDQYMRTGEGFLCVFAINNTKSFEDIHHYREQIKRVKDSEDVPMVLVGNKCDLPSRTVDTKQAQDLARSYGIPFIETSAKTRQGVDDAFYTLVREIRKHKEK
Sequence of KRAS G13D (P62937 whole entry): as the sequence (P62937 whole entry) above
Sequence of K-Ras G13C (P01116-2 other isoform, or with tags, fused parts or gaps G13C): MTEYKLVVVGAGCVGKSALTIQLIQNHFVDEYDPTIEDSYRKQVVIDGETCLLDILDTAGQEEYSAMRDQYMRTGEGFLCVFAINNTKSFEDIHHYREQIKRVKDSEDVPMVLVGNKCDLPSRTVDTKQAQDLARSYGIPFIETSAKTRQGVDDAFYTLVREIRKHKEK
Sequence of K-Ras G13C (P62937 whole entry): as the sequence (P62937 whole entry) above
Sequence of K-Ras G12C (P01116-2 other isoform, or with tags, fused parts or gaps G12C): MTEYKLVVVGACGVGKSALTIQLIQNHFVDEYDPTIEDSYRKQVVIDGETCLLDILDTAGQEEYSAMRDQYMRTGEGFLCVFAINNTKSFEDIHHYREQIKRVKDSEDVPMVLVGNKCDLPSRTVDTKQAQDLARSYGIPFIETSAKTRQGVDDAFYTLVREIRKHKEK
Sequence of K-Ras G12C (P62937 whole entry): as the sequence (P62937 whole entry) above
Sequence of KRAS G12V (P01116-2 other isoform, or with tags, fused parts or gaps G12V): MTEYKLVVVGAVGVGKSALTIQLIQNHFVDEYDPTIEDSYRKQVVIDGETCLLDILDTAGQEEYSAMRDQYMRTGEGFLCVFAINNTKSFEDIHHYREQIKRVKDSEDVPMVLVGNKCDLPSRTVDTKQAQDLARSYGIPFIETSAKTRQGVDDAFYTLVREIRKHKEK
Sequence of KRAS G12V (P62937 whole entry): as the sequence (P62937 whole entry) above
Sequence of KRAS G12D (P01116-2 other isoform, or with tags, fused parts or gaps G12D): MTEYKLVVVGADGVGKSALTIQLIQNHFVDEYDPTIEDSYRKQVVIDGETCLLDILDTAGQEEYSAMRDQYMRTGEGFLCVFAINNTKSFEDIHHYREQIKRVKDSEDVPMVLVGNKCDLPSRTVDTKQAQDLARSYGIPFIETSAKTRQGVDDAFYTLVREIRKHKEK
Sequence of KRAS G12D (P62937 whole entry): as the sequence (P62937 whole entry) above

Compound | IC50 (KRAS G13D) [µM] | EC50 [1] [µM] | IC50 (KRAS G12V) [µM] | IC50 (K-Ras G12C) | IC50 (KRAS G12D) [µM] | IC50 (NRAS Q61R) [µM] | IC50 (K-Ras G13C) [µM]
C=CC(=O)N1CC[C@H](N(C)C(=O)N(C)[C@H](C(=O)N[C@H]2Cc3nc(cs3)-c3ccc4c(c3)c(c(-c3cccnc3[C@H](C)OC)n4CC)CC(C)(C)COC(=O)[C@@H]3CCCN(N3)C2=O)C(C)C)C1 (atropisomer, axis not shown) [Example A728] | 1 to 10 | < 5 | 0.1 to 1 | 0.1 to 1 µM | 1 to 10 | 0.1 to 1 | 0.1 to 1
C=CC(=O)N1CCN(C(=O)N(C)[C@H](C(=O)N[C@H]2Cc3nc(cs3)-c3ccc4c(c3)c(c(-c3cccnc3[C@H](C)OC)n4CC)CC(C)(C)COC(=O)[C@@H]3CCCN(N3)C2=O)C(C)C)[C@H]2CC[C@H]21 (atropisomer, axis not shown) [Example A734] | 0.1 to 1 | < 5 | 0.01 to 0.1 | 0.01 to 0.1 µM | 0.1 to 1 | 0.01 to 0.1 | 0.01 to 0.1
C=CC(=O)N1CC2(C1)OCCCN2C(=O)N(C)[C@H](C(=O)N[C@H]1Cc2nc(cs2)-c2ccc3c(c2)c(c(-c2cccnc2[C@H](C)OC)n3CC)CC(C)(C)COC(=O)[C@@H]2CCCN(N2)C1=O)C(C)C (atropisomer, axis not shown) [Example A735, 2-acryloyl-N-((2S)-1-(((6^3S,4S,Z)-1^1-ethyl-1^2-(2-((S)-1-methoxyethyl)pyridin-3-yl)-10,10-dimethyl-5,7-dioxo-6^1,6^2,6^3,6^4,6^5,6^6-hexahydro-1^1H-8-oxa-2(4,2)-thiazola-1(5,3)-indola-6(1,3)-pyridazinacycloundecaphane-4-yl)amino)-3-methyl-1-oxobutan-2-yl)-N-methyl-5-oxa-2,9-diazaspiro[3.5]nonane-9-carboxamide] | > 10 | < 5 | > 10 | < 0.01 µM | > 10 | > 10 | 1 to 10
C=CC(=O)N(C)[C@@H]1C[C@H]1N(C)C(=O)N(C)[C@H](C(=O)N[C@H]1Cc2nc(cs2)-c2ccc3c(c2)c(c(-c2cccnc2[C@H](C)OC)n3CC)CC(C)(C)COC(=O)[C@@H]2CCCN(N2)C1=O)C(C)C (atropisomer, axis not shown) [Example A739] | 1 to 10 | < 5 | 1 to 10 | 0.1 to 1 µM | 1 to 10 | 1 to 10 | 0.1 to 1
C=CC(=O)N1CC[C@H](C(=O)N(C)[C@H](C(=O)N[C@H]2Cc3cccc(c3)-c3ccc4c(c3)c(c(-c3cnccc3[C@H](C)OC)n4CC)CC(C)(C)COC(=O)[C@@H]3CCCN(N3)C2=O)C(C)C)C1 (single isomer, unassigned) [Example A115] | > 10 | < 5 | 1 to 10 | 0.01 to 0.1 µM and 0.1 to 1 µM | > 10 | 1 to 10 | 1 to 10
C=CC(=O)N1CC[C@H](C(=O)N(C)[C@H](C(=O)N[C@H]2Cc3cc(O)cc(c3)-c3ccc4c(c3)c(c(-c3cc(N5CC(OC)C5)ccn3)n4CC)CC(C)(C)COC(=O)[C@@H]3CCCN(N3)C2=O)C(C)C)C1 [Example A104] | 1 to 10 | < 5 | 1 to 10 | 0.01 to 0.1 µM | > 10 | 1 to 10 | 1 to 10
C=CC(=O)N1CC[C@H](C(=O)N(C)[C@H](C(=O)N[C@H]2Cc3cc(O)cc(c3)-c3ccc4c(c3)c(c(-c3cc(C#N)cnc3COC)n4CC)CC(C)(C)COC(=O)[C@@H]3CCCN(N3)C2=O)C(C)C)C1 [Example A105] | 0.1 to 1 | < 5 | 0.1 to 1 | 0.01 to 0.1 µM | 1 to 10 | 0.1 to 1 | 0.1 to 1
C=CC(=O)N1CC[C@H](C(=O)N(C)[C@H](C(=O)N[C@H]2Cc3cc(O)cc(c3)-c3ccc4c(c3)c(c(-c3cn(C)cn3)n4CC)CC(C)(C)COC(=O)[C@@H]3CCCN(N3)C2=O)C(C)C)C1 [Example A113] | > 10 | < 5 | 1 to 10 | 0.1 to 1 µM | > 10 | > 10 | > 10
